EP0464233A1, “Pharmaceutical combinations against malaria” (priority 1990, dated 1992)
Read-outs that look alike come from different tables or passages of the source.

Tested on: P. berghei NS (resistant to chlorquine)
Experiment: 4-day suppressive test (blood schizontocidal activity), chess-board / isobologram analysis
Format: in vivo, Plasmodium berghei
Conditions: for group mean of parasitaemia as of control: male Swiss mice, D + 4, ± standard error; for parasitaemia: Arteether alone, male mouse, Table II (extended doses); for ED50 / ED90: Plasmodium berghei, in Mus musculus, po
Procedure: The evaluation of blood schizontocidal activities was carried out following the procedure described herein after using the Chloroquine-resistant strain of P. berghei (NS) strain. (Chawira A. N., et al. 1987, Trans, R. Soc. Trop. Med. Hyg. 81 : 554-558).
The methodology followed in the present study was adopted form "4- day suppressive test" (ref. Peters, W.; 1987, Chemotherapy and Drug Resistance in Malaria, Vol. 1, p 111). The experimental data has been analysed by Chess Board Method in the form of an isobologram, (Ref. Chawira A. N., and Warhurst D. C.; 1987, J. Trop. Med. Hyg. 90 : 1-8). ED₅₀ and ED₉₀ was determined using a log-probit method.
Host .. Swiss Mice (20-22 gms) Sex .. Male Parasit .. P. berghei NS (resistant to chlorquine) Route of Infection .. Intravenous Route of drug Administration .. per os
Artheether : A few drops of Kardi oil and Tween^R 80 were added to Arteether to make a paste, followed by 0.5 % Tylose^R (Carboxy methyl cellulose) solution. A homogenous suspension was prepared using a tissue homogenizer in Teflon^R coated glass tube. […] Mefloquine HCl : A solution was prepared in 0.5 % Tylose using a tissue homogenizer.
Drug was administered as follows: (+ 2 H, 24 H, 48 H, 72 H) Each day one dose for 4 days
Slides were drawn from individual mouse and stained with Giemsa on D + 4. The slides were examined under oil immersion lens and parasitaemia was recorded from 15 fields at random. The average of infected and uninfected erythrocytes was determined for each animal. Finally the average parasitaemia of the whole group was determined and considered as 100 % for comparison purposes with the treated group.
At least 5000 to 7500 erythrocytes were examined at random to determine the parasitaemia. In certain cases, where parasitaemia was extremely low 10000 to 15000 erythrocytes were examined.

SMILES | group mean of parasitaemia as of control (Arteether 0.25 mg/kg X 4, p.o., no Quinine) | group mean of parasitaemia as of control (Arteether 0.5 mg/kg X 4, p.o., no Quinine) | group mean of parasitaemia as of control (Arteether 1.0 mg/kg X 4, p.o., no Quinine) | group mean of parasitaemia as of control (Arteether 2.0 mg/kg X 4, p.o., no Quinine) | parasitaemia (Dose 2.0 mg/kg X 4) | parasitaemia (Dose 3.0 mg/kg X 4) | parasitaemia (Dose 4.0 mg/kg X 4) | parasitaemia (Dose 5.0 mg/kg X 4) | ED50 | ED90 | ED50 (read-out: ED50 of Arteether) | ED90 (read-out: ED90 of Arteether) | ED50 (read-out: ED50 of Quinine) | ED90 (read-out: ED90 of Quinine) | group mean of parasitaemia as of control (Quinine 25 mg/kg X 4, p.o., no Arteether) | group mean of parasitaemia as of control (Quinine 37.5 mg/kg X 4, p.o., no Arteether) | group mean of parasitaemia as of control (Quinine 50 mg/kg X 4, p.o., no Arteether)
CCO[C@H]1O[C@@H]2O[C@@]3(C)CC[C@H]4[C@H](C)CC[C@@H]([C@H]1C)[C@@]24OO3 [Arteether] | 90 ± 13.9 | 87 ± 10.8 | 84 ± 10.8 | 77 ± 1.27 | 82 | 57 | 25 | 12 | 2.8 mg/kg | 5.2 mg/kg | 2.8 mg/kg | 5.2 mg/kg | – | – | – | – | –
C=C[C@H]1C[N@@]2CC[C@H]1C[C@H]2[C@H](O)c1ccnc2ccc(OC)cc12 [Quinine] | – | – | – | – | – | – | – | – | – | – | – | – | 61 mg/kg | 110 mg/kg | 92 ± 2.36 | 85 ± 5.8 | 70 ± 11.8
